For one series, the target named is PD-1/PD-L1 (Homo sapiens (Human), UniProt Q9NZQ7). The experiment in a line: PD-1/PD-L1 Binding Assay (Alphascreen). The method, boiled down:
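PD-1/PD-L1 binding detected by anti-6×His acceptor and streptavidin donor beads after 120 min in the dark at 25 °C. Beforehand, the two proteins were incubated 15 min at 25 °C with inhibitor at 0.015–300 nM (1% DMSO). IC50 comes from a log concentration–response curve.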
Background: Bead proximity is the source of the signal in Alpha formats.

A short description of series [1]: Pharmacokinetic Assay, single oral dose 5 mg/kg (Table 12). In kind it is in vivo. Conditions: mouse, plasma concentration, C57 female mice, single oral dose 5 mg/kg. As for the experimental part: Adult C57 female mice were received to single-dose of the test compounds with 15% DMSO, 10% Kolliphor^@HS 15 and 75% saline as excipients, the mice (n=3) were giving oral administration (intragastric administration) with the compounds at a dose of 5 mg/kg. Time of blood collection: 30 min, 2 h, 4 h. approximately 0.1 mL of whole blood was collected from retro-orbital venous plexus, and placed into tubes that contained K2-EDTA as an anticoagulant. The whole blood were centrifuged at 4° C. and 4000 rpm for 10 min. The plasma was transferred into centrifuge tubes, and stored at −20° C. until being analyzed. Concentrations of test compounds in the plasma samples were analyzed with liquid chromatography-tandem mass spectrometry (LC-MS/MS). Plasma concentration-time data of individual animals was analyzed using Microsoft Excel 2010.

As a reminder, the IC50 is the concentration needed to halve the response being measured. A higher IC50 goes with weaker potency in that assay.

Molecules are shown by their SMILES.

Chain of PD-1/PD-L1 (Q9NZQ7 19-238): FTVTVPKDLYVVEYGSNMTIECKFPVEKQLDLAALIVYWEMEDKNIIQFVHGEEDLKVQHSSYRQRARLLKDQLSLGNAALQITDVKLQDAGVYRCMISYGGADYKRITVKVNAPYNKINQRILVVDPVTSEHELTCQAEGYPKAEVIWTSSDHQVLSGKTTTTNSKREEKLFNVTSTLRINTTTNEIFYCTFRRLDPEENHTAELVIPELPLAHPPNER

As to `Cc1c(COc2cc(OCc3cncc(OC(F)F)c3)c(CN3CCC(F)C3)cc2Cl)cccc1-c1cccc(-c2nc3cc(CN4CCC[C@H]4C(=O)O)c(OC(F)F)cc3o2)c1C` (stereo partly drawn) [Example 209, ((2-(3′-((2-chloro-5-((5-(difluoromethoxy)pyridin-3-yl)methoxy)-4-((3-fluoropyrrolidin-1-yl)methyl)phenoxy)methyl)-2,2′-dimethyl-[1,1′-biphenyl]-3-yl)-6-(difluoromethoxy)benzo[d]oxazol-5-yl)methyl)-L-proline], the IC50 at PD-1/PD-L1 (numeric values) turned out to be 1.4 nM. For the same compound, in series [1], the concentration at 0.5 h worked out at 21.4 ng/mL, the concentration at 2 h turned out to be 54.9 ng/mL and the concentration at 4 h was 19.2 ng/mL.
Consider `Cc1c(-c2nc3cc(CN4CCC[C@H]4C(=O)O)c(OC(F)F)cc3o2)cccc1-c1cccc(-c2nc3cc(CN4CC(F)C(F)C4)cc(C#N)c3o2)c1C` (stereo partly drawn) [Example 164, ((2-(3′-(7-cyano-5-((3,4-difluoropyrrolidin-1-yl)methyl)benzo [d]oxazol-2-yl)-2,2′-dimethyl-[1,1′-biphenyl]-3-yl)-6-(difluoromethoxy)benzo[d]oxazol-5-yl)methyl)-L-proline], for which, at PD-1/PD-L1 (range symbols), the IC50 was 5 to 50 nM. Further, in series [1], the concentration at 0.5 h is 294 ng/mL, the concentration at 2 h stood at 877 ng/mL and the concentration at 4 h was 853 ng/mL.
Compound `Cc1c(-c2ccc(CN3CC[C@H](COCc4ccccc4)C3)c(F)c2)cccc1-c1cccc(-c2nc3cc(CN4CCC[C@H]4C(=O)O)c(OC(F)F)cc3o2)c1C` [Example 252, ((2-(4″-(((S)-3-((benzyloxy)methyl)pyrrolidin-1-yl)methyl)-3″-fluoro-2,2′-dimethyl-[1,1′:3′,1″- terphenyl]-3-yl)-6-(difluoromethoxy)benzo[d]oxazol-5-yl)methyl)proline] returned an IC50 on PD-1/PD-L1 (range symbols) of 0.1 to 5 nM. Further, in series [1], the concentration at 0.5 h turned out to be 694 ng/mL, the concentration at 2 h was 2870 ng/mL and the concentration at 4 h stood at 4150 ng/mL.
Consider `Cc1c(-c2nc3cc(CN4CCC[C@H]4C(=O)O)c(OC(F)F)cc3o2)cccc1-c1cccc(-c2nc3cc(CN4CCC(C#N)C4)cc(C#N)c3o2)c1C` (stereo partly drawn) [Example 142, ((2-(3′-(7-cyano-5-((3-cyanopyrrolidin-1-yl)methyl)benzo[d]oxazol-2-yl)-2,2′-dimethyl-[1,1′-biphenyl]-3-yl)-6-(difluoromethoxy)benzo[d]oxazol-5-yl)methyl)-L-proline], for which the IC50 on PD-1/PD-L1 (range symbols) fell in the range of 0.1 to 5 nM. Also, in series [1], the concentration at 0.5 h worked out at 211 ng/mL, the concentration at 2 h stood at 243 ng/mL and the concentration at 4 h was determined as 171 ng/mL.
Take `Cc1c(-c2nc3c(o2)CCN(CCC(F)(F)F)C3)cccc1-c1cccc(-c2nc3cc(CN4CCC[C@H]4C(=O)O)c(OC(F)F)cc3o2)c1C` [Example 198, ((6-(difluoromethoxy)-2-(2,2′-dimethyl-3′-(5-(3,3,3-trifluoropropyl)-4,5,6,7-tetrahydrooxazolo[4,5-c]pyridin-2-yl)-[1,1′-biphenyl]-3-yl)benzo[d]oxazol-5-yl)methyl)proline]: the IC50 at PD-1/PD-L1 (range symbols) is more than 50 nM. Moreover, in series [1], the concentration at 0.5 h worked out at 674 ng/mL, the concentration at 2 h turned out to be 1440 ng/mL and the concentration at 4 h came to 1100 ng/mL.
On to `Cc1c(-c2nc3cc(CN4CCC[C@H]4C(=O)O)c(OC(F)F)cc3o2)cccc1-c1cccc(-c2nc3cc(CN4CC5CC4C5)cc(C(F)(F)F)c3o2)c1C` [Example 89], for which the IC50 at PD-1/PD-L1 (range symbols) fell in the range of 0.1 to 5 nM. In series [1], the concentration at 0.5 h worked out at 21.3 ng/mL, the concentration at 2 h was 124 ng/mL and the concentration at 4 h is 109 ng/mL.
Regarding `Cc1c(-c2ccc3[nH]c(N)nc3c2)cccc1-c1cccc(-c2nc3cc(CN4CCC[C@H]4C(=O)O)c(OC(F)F)cc3o2)c1C` [Example 293, ((2-(3′-(2-amino-1H-benzo[d]imidazol-5-yl)-2,2′-dimethyl-[1,1′-biphenyl]-3-yl)-6-(difluoromethoxy)benzo[d]oxazol-5-yl)methyl)-L-proline], the IC50 at PD-1/PD-L1 (numeric values) came out at 11 nM. In series [1], this compound showed a concentration at 0.5 h of 6.68 ng/mL, a concentration at 2 h of 10.8 ng/mL and a concentration at 4 h of 3.57 ng/mL.
For the compound `Cc1c(-c2nc3cc(CN4CCC[C@H]4C(=O)O)c(OC(F)F)cc3o2)cccc1-c1cccc(-c2nc3cc(CN4CC[C@@H](C)C4)cnc3o2)c1C` [Example 114, ((6-(difluoromethoxy)-2-(2,2′-dimethyl-3′-(6-(((R)-3-methylpyrrolidin-1-yl)methyl)oxazolo [5,4-b]pyridin-2-yl)-[1,1′-biphenyl]-3-yl)benzo[d]oxazol-5-yl)methyl)-L-proline], the half-inhibitory concentration (IC50) on PD-1/PD-L1 (numeric values) came out at 1 nM. In series [1], the concentration at 0.5 h stood at 65.6 ng/mL, the concentration at 2 h stood at 237 ng/mL and the concentration at 4 h was 152 ng/mL.
For the compound `Cc1c(-c2nc3c(o2)CCC3)cccc1-c1cccc(-c2nc3cc(CN4CCC[C@H]4C(=O)O)c(OC(F)F)cc3o2)c1C` [Example 204, ((6-(difluoromethoxy)-2-(3′-(5,6-dihydro-4H-cyclopenta[d]oxazol-2-yl)-2,2′-dimethyl-[1,1′-biphenyl]-3-yl)benzo[d]oxazol-5-yl)methyl)proline], at PD-1/PD-L1 (range symbols), the IC50 was 0.1 to 5 nM. In series [1], this compound gave a concentration at 0.5 h of 740 ng/mL, a concentration at 2 h of 872 ng/mL and a concentration at 4 h of 820 ng/mL.
At PD-1/PD-L1 (numeric values), `Cc1c(-c2nc3cc(CN4CCC(C)(C)C4)c(OC(F)F)cc3o2)cccc1-c1cccc(-c2nc3cc(CN4CCC[C@H]4C(=O)O)c(OC(F)F)cc3o2)c1C` [Example 67, ((6-(difluoromethoxy)-2-(3′-(6-(difluoromethoxy)-5-((3,3-dimethylpyrrolidin-1-yl)methyl)benzo[d]oxazol-2-yl)-2,2′-dimethyl-[1,1′-biphenyl]-3-yl)benzo[d]oxazol-5-yl)methyl)-L-proline] yielded an IC50 of 6.7 nM. In series [1], this compound showed a concentration at 0.5 h of 143 ng/mL, a concentration at 2 h of 418 ng/mL and a concentration at 4 h of 462 ng/mL.
In the case of `Cc1c(-c2nc3cc(CN4CCC[C@H]4C(=O)O)c(OC(F)F)cc3o2)cccc1-c1cccc(-c2nc3cc(CN4CCCC4)c(F)c(F)c3o2)c1C` [Example 102, ((2-(3′-(6,7-difluoro-5-(pyrrolidin-1-ylmethyl)benzo[d]oxazol-2-yl)-2,2′-dimethyl-[1,1′-biphenyl]-3-yl)-6-(difluoromethoxy)benzo[d]oxazol-5-yl)methyl)-L-proline], on PD-1/PD-L1 (numeric values), the IC50 came to 18 nM. Further, in series [1], the concentration at 0.5 h stood at 85.9 ng/mL, the concentration at 2 h worked out at 282 ng/mL and the concentration at 4 h is 292 ng/mL.
The compound `Cc1c(-c2nc3cc(CN4CCC[C@H]4C(=O)O)c(OC(F)F)cc3o2)cccc1-c1cccc(-c2nc3cc(CN4CC[C@@H](C#N)C4)cc(C#N)c3o2)c1C` [Example 165, ((2-(3′-(7-cyano-5-(((R)-3-cyanopyrrolidin-1-yl)methyl)benzo[d]oxazol-2-yl)-2,2′-dimethyl-[1,1′-biphenyl]-3-yl)-6-(difluoromethoxy)benzo[d]oxazol-5-yl)methyl)-L-proline] returned an IC50 at PD-1/PD-L1 (range symbols) of 0.1 to 5 nM. In series [1], the concentration at 0.5 h was 376 ng/mL, the concentration at 2 h is 404 ng/mL and the concentration at 4 h was 219 ng/mL.
On to `CCS(=O)(=O)N1CCc2oc(-c3cccc(-c4cccc(-c5nc6cc(CN7CCC[C@H]7C(=O)O)c(OC(F)F)cc6o5)c4C)c3C)nc2C1` [Example 197, ((6-(difluoromethoxy)-2-(3′-(5-(ethylsulfonyl)-4,5,6,7-tetrahydrooxazolo[4,5-c]pyridin-2-yl)-2,2′-dimethyl-[1,1′-biphenyl]-3-yl)benzo[d]oxazol-5-yl)methyl)proline], for which the IC50 on PD-1/PD-L1 (range symbols) was in the range of 5 to 50 nM. In series [1], this compound had a concentration at 0.5 h of 527 ng/mL, a concentration at 2 h of 741 ng/mL and a concentration at 4 h of 369 ng/mL.
`Cc1c(-c2nc3cc(CN4CC(C#N)C4)c(OC(F)F)cc3o2)cccc1-c1cccc(-c2nc3cc(CN4CCC[C@H]4C(=O)O)c(OC(F)F)cc3o2)c1C` [Example 80, ((2-(3′-(5-((3-cyanoazetidin-1-yl)methyl)-6-(difluoromethoxy)benzo[d]oxazol-2-yl)-2,2′-dimethyl-[1,1′-biphenyl]-3-yl)-6-(difluoromethoxy)benzo[d]oxazol-5-yl)methyl)-L-proline] returned an IC50 at PD-1/PD-L1 (range symbols) of 5 to 50 nM. In series [1], this compound registered a concentration at 0.5 h of 247 ng/mL, a concentration at 2 h of 299 ng/mL and a concentration at 4 h of 167 ng/mL.
Regarding `Cc1c(-c2nc3cc(CN4C[C@@H](F)[C@H](F)C4)c(OC(F)F)cc3o2)cccc1-c1cccc(-c2nc3cc(CN4CCC[C@H]4C(=O)O)c(OC(F)F)cc3o2)c1C` [Example 18, ((6-(difluoromethoxy)-2-(3′-(6-(difluoromethoxy)-5-(((3R,4R)-3,4-difluoropyrrolidin-1-yl)methyl)benzo[d]oxazol-2-yl)-2,2′-dimethyl-[1,1′-biphenyl]-3-yl)benzo[d]oxazol-5-yl)methyl)-L-proline], the IC50 at PD-1/PD-L1 (numeric values) was 164 nM. Also, in series [1], the concentration at 0.5 h stood at 303 ng/mL, the concentration at 2 h was 642 ng/mL and the concentration at 4 h turned out to be 626 ng/mL.
Compound `COc1nc(-c2cccc(-c3cccc(-c4nc5cc(CN6CCC[C@H]6C(=O)O)c(OC(F)F)cc5o4)c3C)c2C)ccc1CN1CC[C@@H](C)C1` [Example 272, ((6-(difluoromethoxy)-2-(3′-(6-methoxy-5-(((R)-3-methylpyrrolidin-1-yl)methyl)pyridin-2-yl)-2,2′-dimethyl-[1,1′-biphenyl]-3-yl)benzo[d]oxazol-5-yl)methyl)-L-proline] came in with an IC50 at PD-1/PD-L1 (numeric values) of 1.9 nM. In series [1], this compound returned a concentration at 0.5 h of 66.1 ng/mL, a concentration at 2 h of 198 ng/mL and a concentration at 4 h of 141 ng/mL.

These data come from patent US12187713B2, “Immunomodulators, compositions and methods thereof” (Betta Pharmaceuticals Co., Ltd, priority 2019, dated 2025).
